From US9815851B2, “Pyrrolo carboxamides as modulators of orphan nuclear receptor RAR-related orphan receptor-gamma (RORγ, NR1F3) activity and for the treatment of chronic inflammatory and autoimmune diseases” (PHENEX PHARMACEUTICALS AG, priority 2011, dated 2017)
Read-outs that look alike come from different tables or passages of the source.

Assays:
RORγ = target: T1, RORγ (UniProt P51449); test: RORγ Gal4 Reporter Gene Assay in 293T cells (firefly and renilla luciferase); assay type: cell-based, human
T1 sequence (P51449 1-518): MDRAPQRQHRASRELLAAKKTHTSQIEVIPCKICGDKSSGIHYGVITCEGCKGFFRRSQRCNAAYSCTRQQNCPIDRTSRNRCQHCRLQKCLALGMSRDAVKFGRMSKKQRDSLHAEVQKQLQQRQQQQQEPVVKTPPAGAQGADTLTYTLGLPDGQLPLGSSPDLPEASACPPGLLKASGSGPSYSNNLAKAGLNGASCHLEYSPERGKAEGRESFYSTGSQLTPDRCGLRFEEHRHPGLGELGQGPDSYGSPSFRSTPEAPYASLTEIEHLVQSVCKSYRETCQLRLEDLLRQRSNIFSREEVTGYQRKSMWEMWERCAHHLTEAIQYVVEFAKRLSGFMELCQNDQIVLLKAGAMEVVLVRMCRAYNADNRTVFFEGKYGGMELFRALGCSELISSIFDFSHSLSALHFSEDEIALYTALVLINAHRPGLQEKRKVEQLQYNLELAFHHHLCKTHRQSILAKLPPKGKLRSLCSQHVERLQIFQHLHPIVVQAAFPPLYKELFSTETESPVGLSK

[1] = target: T2, RORγ ligand binding domain (LBD) (Homo sapiens, UniProt P51449); test: TR-FRET Activity Assay (ligand sensing, RORγ-LBD / coactivator peptide interaction, LANCE); assay type: biochemical
T2 construct: made in house; host or cells: E. coli BL-21 (BL3), vector pDEST15
T2 sequence (P51449 269-508 limits assumed): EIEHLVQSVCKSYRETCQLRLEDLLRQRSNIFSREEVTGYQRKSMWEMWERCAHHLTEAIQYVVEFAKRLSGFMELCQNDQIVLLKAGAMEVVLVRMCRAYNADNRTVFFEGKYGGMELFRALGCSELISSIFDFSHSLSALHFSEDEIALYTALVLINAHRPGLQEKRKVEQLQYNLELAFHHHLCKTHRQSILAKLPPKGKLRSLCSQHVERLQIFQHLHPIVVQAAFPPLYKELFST

[2] = second value of the cell, Gal4 reporter gene assay in 293T cells, firefly luciferase
[3] = third value of the cell, Gal4 reporter gene assay in 293T cells, renilla normalised luciferase
[4] = first value of the cell FRET/FF/REN, TR-FRET activity assay, read-out: pIC50 (FRET) (converted)

Structure (SMILES) | pIC50 (FF) (RORγ; [2]) | pIC50 (REN) (RORγ; [3]) | IC50 [1, 4] [nM] | pIC50 (FF) (RORγ) | pIC50 (REN) (RORγ) | IC50 [1] [nM]
CC(C)(C)NS(=O)(=O)c1ccc(-c2cc(C(=O)NCC3(O)CCOCC3)c(C(F)(F)F)n2CC2CCCCC2)cc1C(C)(C)C [1/27] | < 4.7 | < 4.7 | 12600 | – | – | –
Cc1c(C(=O)NC2CCOCC2)cc(-c2ccc(S(=O)(=O)NC(C)(C)C)c3cccnc23)n1CC1CCCCC1 [17/282] | 6.6 | 6.7 | 2000 | – | – | –
Cc1c(C(=O)N[C@H]2C[C@](C)(C(=O)O)C2)cc(-c2ccc(S(=O)(=O)NC(C)(C)C)c(C(F)F)c2)n1CC1CCCCC1 [17/170] | 6.8 | 7.0 | 316 | – | – | –
Cc1c(C(=O)NCCCCCO)cc(-c2cc(C(C)(C)C)cc(C3(C)CC3)c2)n1CC1CCCCC1 [1/82] | – | – | – | 6.8/7.4/7.4 | 6.8/7.4/7.4 | 158
Cc1c(C(=O)NCC(C)(C)C(=O)O)cc(-c2ccc(S(=O)(=O)NC(C)(C)C)c(OC(F)(F)F)c2)n1CC1CCCCC1 [17/173] | 7.3 | 7.3 | 316 | – | – | –
Cc1c(C(=O)NCC2(O)CC[S+]([O-])CC2)cc(-c2cc(C(C)(C)C)c3c(c2)C2(CCO3)CC2)n1CC1CCCCC1 (stereo not drawn) [17/38] | 6.7 | 6.7 | 1000 | – | – | –
Cc1c(C(=O)NCC(C)(C)C(N)=O)cc(-c2cc(C(C)(C)C)c3c(c2)C2(CCO3)CC2)n1CC1CCCCC1 [1/98] | 7.3 | 7.3 | 631 | – | – | –
COCCNC(=O)c1cc(-c2cc(C(C)(C)C)cc(C(C)(C)C)c2)n(CC2CCCCC2)c1C [1/64] | 6.5/6.5/6.5 | 6.5/6.5/6.5 | 316 | – | – | –
Cc1c(C(=O)NC2CCOCC2)cc(-c2ccc(S(=O)(=O)NC(C)(C)C)c3ncccc23)n1CC1CCCCC1 [17/283] | 6.7 | 6.8 | 1000 | – | – | –
CNC(=O)c1ccc(-c2cc(C(=O)NC3CCOCC3)c(C)n2CC2CCCCC2)cc1C(C)(C)C [6/4] | < 4.7 | < 4.7 | 10000 | – | – | –
COC(C)(C)c1cc(-c2cc(C(=O)NC3CCOCC3)c(C)n2CC2CCCCC2)cc(C2(C)CC2)c1 [1/44] | – | – | – | 6.3/7.4/7.3 | 6.3/7.4/7.3 | 501
Cc1c(C(=O)NCC(C)(C)C(=O)NS(C)(=O)=O)cc(-c2cc(C(C)(C)C)c3c(c2)C2(CCO3)CC2)n1CC1CCCCC1 [17/26] | 7.3 | 7.3 | 1580 | – | – | –
Cc1c(C(=O)NCC2CCOCC2)cc(-c2ccc(S(=O)(=O)NC(C)(C)C)c(C(C)(C)C)c2)n1CC1CCCCC1 [1/10] | – | – | – | 6.3/7.5/7.5 | 6.3/7.5/7.5 | 501
Cc1c(C(=O)NC2C[S+]([O-])C2)cc(-c2cc(C(C)(C)C)cc(C(C)(C)C)c2)n1CC1CCCCC1 (stereo not drawn) [Example 2, 1-(Cyclohexylmethyl)-5-(3,5-di-tert-butylphenyl)-2-methyl-N-(1-oxidothietan-3-yl)-1H-pyrrole-3-carboxamide] | 7.0 | 7.0 | 251 | – | – | –
Cc1c(C(=O)NC2C[S+]([O-])C2)cc(-c2cc(C(C)(C)C)c3c(c2)C2(CCO3)CC2)n1CC1CCCCC1 (stereo not drawn) [17/25] | – | – | – | 6.5/6.9/7.0 | 6.5/6.9/7.0 | 316
CCC(C)(C)NS(=O)(=O)c1ccc(-c2cc(C(=O)N[C@H]3C[C@H](C(=O)O)C3)c(C)n2CC2CCCCC2)c(Cl)c1C [17/197] | 7.9 | 7.7 | 794 | – | – | –
Cc1c(C(=O)NC2CCOCC2)cc(-c2ccc(S(=O)(=O)NC(C)(C)C)c(C(F)(F)F)c2)n1CC1CCC(F)CC1 (stereo not drawn) [17/257] | – | – | – | 6.3/7.4/7.6 | 6.3/7.4/7.6 | 501
Cc1c(C(=O)NC2CCOCC2)cc(-c2cc(C(C)(C)O)cc(C3(C)CC3)c2)n1CC1CCCCC1 [1/43] | 7.1 | 7.1 | 1000 | – | – | –
Cc1c(C(=O)NC2CCOCC2)cc(-c2ccc(S(=O)(=O)NC(C)(C)C)c(OC(F)F)c2)n1CC1CCCCC1 [17/106] | 7.3 | 7.3 | 501 | – | – | –
CCC(C)(C)NS(=O)(=O)c1ccc(-c2cc(C(=O)NC3CCOCC3)c(C)n2CC2CCCC2)cc1C(F)(F)F [17/216] | 7.8 | 7.8 | 200 | – | – | –
Cc1c(C(=O)NC2CCOCC2)cc(-c2ccc(S(=O)(=O)NC(C)(C)C)c(C(C)C)c2)n1CC1CCCCC1 [17/226] | 8.2 | 8.2 | 316 | – | – | –
Cc1c(C(=O)N[C@H]2C[C@H](C(=O)O)C2)cc(-c2ccc(S(=O)(=O)NC(C)(C)C)c(C(C)(C)C)c2)n1CC1CCCCC1 [17/221] | 7.1 | 7.1 | 2000 | – | – | –
Cc1c(C(=O)NCC(C)(C)C(=O)NCCS(C)(=O)=O)cc(-c2cc(C(C)(C)C)c3c(c2)C2(CCO3)CC2)n1CC1CCCCC1 [11/4] | 6.9 | 7.0 | 398 | – | – | –
COC(=O)CC1(NC(=O)c2cc(-c3cc(C(C)(C)C)cc(C(C)(C)C)c3)n(CC3CCCCC3)c2C)COC1 [17/46] | 6.5/6.5/6.5 | 6.5/6.5/6.5 | 316 | – | – | –
Cc1c(C(=O)N(C)CC2(CO)COC2)cc(-c2cc(C(C)(C)C)cc(C3(C)CC3)c2)n1CC1CCCCC1 [17/78] | – | – | – | 6.3/7.3/7.3 | 6.3/7.3/7.3 | 501
Cc1c(C(=O)NCCCCO)cc(-c2cc(C(C)(C)C)cc(C(C)(C)C)c2)n1CC1CCCCC1 [1/66] | 6.7 | 6.8 | 398 | – | – | –
CC(C)(C)NS(=O)(=O)c1ccc(-c2cc(C(=O)NC3CCOCC3)c(F)n2CC2CCCCC2)cc1C(C)(C)C [Example 20, 5-(3-(tert-Butyl)-4-(N-(tert-butyl)sulfamoyl)phenyl)-1-(cyclohexylmethyl)-2-fluoro-N-(tetrahydro-2H-pyran-4-yl)-1H-pyrrole-3-carboxamide] | 7.4 | 7.5 | 398 | – | – | –
